# Reference: US11724980B2, “Quinones having high capacity retention for use as electrolytes in aqueous redox flow batteries” (President and Fellows of Harvard College, priority 2018, dated 2023)
# Where “and” joins values, the source holds several entries; their conditions need not be identical. Equal values may be shown once.
# What was measured:
# [1] = Cyclic voltammetry on glassy carbon electrode; format: physicochemical
# Description: Glassy carbon was used as the working electrode for all three-electrode CV tests. RDE experiments were conducted using a Pine Instruments Modulated Speed Rotator AFMSRCE equipped with a 5 mm diameter glassy carbon working electrode, a Ag/AgCl reference electrode (BASi, pre-soaked in 3 M NaCl solution), and a graphite counter electrode. The electrode was rotated at a specific speed while the voltage was linearly swept from −0.4 to −0.11 V vs. Ag/AgCl (FIG. 4A). […].
# A second CV experiment was performed in which 2,6-DBEAQ was dissolved in pH 14 KOH solution at a concentration of 2 mM. CV measurements were plotted in FIG. 4C. The standard equilibrium potential was determined to be −0.49 V vs. SHE. The separation between the peaks in the CV curves was 42 mV, indicating fairly rapid and reversible electrochemical reactions at the surface of the electrodes.
# [2] = physchem; format: physicochemical; conditions: for decomposition: 0.1 M
# Description: FIGS. 24A-24D. Comparison of the stability of DPPEAQ with respect to alkyl chain cleavage to that of 2,6-DBEAQ at pH 14. ^1H NMR spectra (500 MHz, 10 mM NaCH3SO3 internal standard, δ 2.6 ppm) of (A) DPPEAQ at pH 14; (B) DPPEAQ at pH 14, treated for 5.5 days at 95° C. and 0.1 M concentration; (C) 2,6-DBEAQ at pH 14; (D) 2,6-DBEAQ at pH 14, treated for 5.5 days at 95° C. and 0.1 M concentration. […] The relative integrals and splitting of the peaks in the spectra of DPPEAQ after treatment are consistent with the products of (3-hydroxypropyl)phosphonate cleavage. Samples of DPPEAQ at 0.1 M concentration and pH 14 in both the oxidized and reduced form were stored in FEP bottles and heated in an oven at 65° C. for 2 weeks. The extent of decomposition was determined by ^1H NMR, with peak integrals measured relative to an internal standard of NaCH3SO3 prepared at 10 mM concentration in D2O.
# By performing elevated temperature chemical stability studies, we have identified that the cleavage of γ-hydroxybutyrate is involved in the decomposition of the oxidized form of 2,6-DBEAQ (FIGS. 10A-10C and FIGS. 11A-11D), and we have characterized the time course of γ-hydroxybutyrate cleavage at pH 12 and pH 14 and at 0.1 M and 0.5 M concentration (FIG. 12 and FIGS. 13A-13C). […]; these observations are consistent with long redox flow battery lifetime at typical operating cell conditions.
# We designed an analogue of 2,6-DBEAQ but with phosphonate-terminated functional groups, DPPEAQ, appearing to deliver both of these desired outcomes.
# The differing relative stabilities of DPPEAQ and 2,6-DBEAQ at pH 12 (at 95° C. and 0.1 M concentration), in contrast to the similar extent of their observed decomposition at pH 14, may be due to a competition between multiple decomposition mechanisms that vary in a pH-dependent manner. The concentration of hydroxide ions at pH 14 is tenfold higher than the concentration of either molecule at 0.1 M, as opposed to tenfold lower at pH 12. In particular, we propose a hydroxide-mediated nucleophilic substitution reaction (SNAr or SN2) that dominates the decomposition of both molecules at pH 14. However, at a lower pH of 12, an intramolecular reaction with carboxylate acting as the nucleophile dominates in the decomposition of 2,6-DBEAQ, while no analogous intramolecular reaction of DPPEAQ at pH 12 can take place due to much weaker nucleophilicity of bulked phosphonate compared with carboxylate. The difference in the dominant mechanisms of 2,6-DBEAQ decomposition at pH 12 and 14 that we are proposing is also consistent with the observation that the initial rate of degradation is not 100-fold slower at pH 12 relative to pH 14. […] In addition, the operability at lower pH serves to decrease the corrosion of battery systems and enable the use of less expensive materials.
compound,measurement,setting,value
"O=C([O-])CCCOc1ccc2c(c1)C(=O)c1ccc(OCCCC(=O)[O-])cc1C2=O.[K+].[K+] [2,6-DBEAQ, 4,4′-((9,10-anthraquinone-2,6-diyl)dioxy)dibutyric acid]","redox potential higher than that of 2,6-DHAQ",[1],~200 mV
same,pH above which the potential is pH-independent,[1]; Pourbaix diagram,11.5 and ~11.5
same,Pourbaix diagram slope,[1]; fit to data below pH 12,−35 mV/pH
same,separation between the peaks in the CV curves,"[1]; pH 14 KOH, 2 mM",42 mV
same,standard equilibrium potential,"[1]; pH 14 KOH, 2 mM",−0.49 V vs. SHE
same,half-life,"[2]; buffer, room temperature, pH 14, 0.1 M, oxidized form, from elevated temperature studies",~1830 days
same,decomposition,"[2]; pH 12, 6 days at 95° C.",15%
same,decomposition,"[2]; pH 14, 5.5 days at 95° C.",45%
same,stability of the reduced form,[2]; temperatures up to 95° C.,quite stable
